Reference: PubChem BioAssay (NCI)
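These data come from cells grown in 96-well plates and exposed to compound for 48 hours at five concentrations. TGI is the concentration that stops growth completely.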

Key:
Test in all cases: growth of human tumour cells (NCI), 48 h
NCI-H522 lung = tested on: NCI-H522 lung
NCI-H23 lung = tested on: NCI-H23 lung
U251 CNS = tested on: U251 CNS
SF-539 CNS = tested on: SF-539 CNS
HT29 colon = tested on: HT29 colon
SW-620 colon = tested on: SW-620 colon
COLO 205 colon = tested on: COLO 205 colon
KM12 colon = tested on: KM12 colon
A498 renal = tested on: A498 renal
TK-10 renal = tested on: TK-10 renal
EKVX NSCLC = tested on: EKVX NSCLC
HCC-2998 colon = tested on: HCC-2998 colon
MDA-N = tested on: MDA-N
IGROV1 ovarian = tested on: IGROV1 ovarian
K-562 leukemia = tested on: K-562 leukemia
HCT-15 colon = tested on: HCT-15 colon
SNB-75 CNS = tested on: SNB-75 CNS
LOX IMVI melanoma = tested on: LOX IMVI melanoma
PC-3 prostate = tested on: PC-3 prostate
NCI-H226 lung = tested on: NCI-H226 lung
SNB-19 CNS = tested on: SNB-19 CNS
MALME-3M melanoma = tested on: MALME-3M melanoma
SK-MEL-28 melanoma = tested on: SK-MEL-28 melanoma
SK-OV-3 ovarian = tested on: SK-OV-3 ovarian
OVCAR-5 ovarian = tested on: OVCAR-5 ovarian
NCI-H460 lung = tested on: NCI-H460 lung
T-47D breast = tested on: T-47D breast
HOP-92 NSCLC = tested on: HOP-92 NSCLC
SN12C renal = tested on: SN12C renal
MOLT-4 leukemia = tested on: MOLT-4 leukemia
ACHN renal = tested on: ACHN renal
DU-145 prostate = tested on: DU-145 prostate
HOP-62 NSCLC = tested on: HOP-62 NSCLC
SK-MEL-2 melanoma = tested on: SK-MEL-2 melanoma
BT-549 breast = tested on: BT-549 breast
UACC-257 melanoma = tested on: UACC-257 melanoma
SK-MEL-5 melanoma = tested on: SK-MEL-5 melanoma
HS 578T breast = tested on: HS 578T breast
CCRF-CEM leukemia = tested on: CCRF-CEM leukemia
SF-295 CNS = tested on: SF-295 CNS
OVCAR-3 ovarian = tested on: OVCAR-3 ovarian
M14 melanoma = tested on: M14 melanoma
A549 NSCLC = tested on: A549 NSCLC
OVCAR-4 ovarian = tested on: OVCAR-4 ovarian
CAKI-1 renal = tested on: CAKI-1 renal
SF-268 CNS = tested on: SF-268 CNS
UACC-62 melanoma = tested on: UACC-62 melanoma
786-0 renal = tested on: 786-0 renal
NCI/ADR-RES ovarian = tested on: NCI/ADR-RES ovarian
MCF7 breast = tested on: MCF7 breast
HCT-116 colon = tested on: HCT-116 colon
SR leukemia = tested on: SR leukemia
OVCAR-8 ovarian = tested on: OVCAR-8 ovarian
MDA-MB-435 = tested on: MDA-MB-435
RXF 393 renal = tested on: RXF 393 renal
MDA-MB-231 breast = tested on: MDA-MB-231 breast
HL-60(TB) leukemia = tested on: HL-60(TB) leukemia
RPMI-8226 leukemia = tested on: RPMI-8226 leukemia
UO-31 renal = tested on: UO-31 renal

Compound: CCCCCC(/C=N/NC(N)=S)C(O)(C(F)(F)F)C(F)(F)F (centres undefined)
- TGI (NCI-H522 lung): > 10 µM
- TGI (NCI-H23 lung): > 10 µM
- TGI (U251 CNS): > 10 µM
- TGI (SF-539 CNS): > 10 µM
- TGI (HT29 colon): > 10 µM
- TGI (SW-620 colon): > 10 µM
- TGI (COLO 205 colon): > 10 µM
- TGI (KM12 colon): > 10 µM
- TGI (A498 renal): > 10 µM
- TGI (TK-10 renal): > 10 µM
- TGI (EKVX NSCLC): > 10 µM
- TGI (HCC-2998 colon): > 10 µM
- TGI (MDA-N): > 10 µM
- TGI (IGROV1 ovarian): > 10 µM
- TGI (K-562 leukemia): > 10 µM
- TGI (HCT-15 colon): > 10 µM
- TGI (SNB-75 CNS): > 10 µM
- TGI (LOX IMVI melanoma): > 10 µM
- TGI (PC-3 prostate): > 10 µM
- TGI (NCI-H226 lung): > 10 µM
- TGI (SNB-19 CNS): > 10 µM
- TGI (MALME-3M melanoma): > 10 µM
- TGI (SK-MEL-28 melanoma): > 10 µM
- TGI (SK-OV-3 ovarian): > 10 µM
- TGI (OVCAR-5 ovarian): > 10 µM
- TGI (NCI-H460 lung): > 10 µM
- TGI (T-47D breast): > 10 µM
- TGI (HOP-92 NSCLC): > 10 µM
- TGI (SN12C renal): > 10 µM
- TGI (MOLT-4 leukemia): > 10 µM
- TGI (ACHN renal): > 10 µM
- TGI (DU-145 prostate): > 10 µM
- TGI (HOP-62 NSCLC): > 10 µM
- TGI (SK-MEL-2 melanoma): > 10 µM
- TGI (BT-549 breast): > 10 µM
- TGI (UACC-257 melanoma): > 10 µM
- TGI (SK-MEL-5 melanoma): > 10 µM
- TGI (HS 578T breast): > 10 µM
- TGI (CCRF-CEM leukemia): > 10 µM
- TGI (SF-295 CNS): > 10 µM
- TGI (OVCAR-3 ovarian): > 10 µM
- TGI (M14 melanoma): > 10 µM
- TGI (A549 NSCLC): > 10 µM
- TGI (OVCAR-4 ovarian): > 10 µM
- TGI (CAKI-1 renal): > 10 µM
- TGI (SF-268 CNS): > 10 µM
- TGI (UACC-62 melanoma): > 10 µM
- TGI (786-0 renal): > 10 µM
- TGI (NCI/ADR-RES ovarian): > 10 µM
- TGI (MCF7 breast): > 10 µM
- TGI (HCT-116 colon): > 10 µM
- TGI (SR leukemia): > 10 µM
- TGI (OVCAR-8 ovarian): > 10 µM
- TGI (MDA-MB-435): > 10 µM
- TGI (RXF 393 renal): > 10 µM
- TGI (MDA-MB-231 breast): > 10 µM

Compound: C/C=C/OC1C(C2COC(C)(C)O2)OC2OC(C)(C)OC21 (centres undefined)
- TGI (NCI-H522 lung): > 100 µM
- TGI (NCI-H23 lung): > 100 µM
- TGI (U251 CNS): > 100 µM
- TGI (SF-539 CNS): > 100 µM
- TGI (HT29 colon): > 100 µM
- TGI (SW-620 colon): > 100 µM
- TGI (A498 renal): > 100 µM
- TGI (TK-10 renal): > 100 µM
- TGI (EKVX NSCLC): > 100 µM
- TGI (HCC-2998 colon): > 100 µM
- TGI (MDA-N): > 100 µM
- TGI (IGROV1 ovarian): > 100 µM
- TGI (K-562 leukemia): > 100 µM
- TGI (HCT-15 colon): > 100 µM
- TGI (SNB-75 CNS): > 100 µM
- TGI (LOX IMVI melanoma): > 100 µM
- TGI (PC-3 prostate): > 100 µM
- TGI (SNB-19 CNS): > 100 µM
- TGI (HL-60(TB) leukemia): > 100 µM
- TGI (MALME-3M melanoma): > 100 µM
- TGI (SK-MEL-28 melanoma): > 100 µM
- TGI (SK-OV-3 ovarian): > 100 µM
- TGI (OVCAR-5 ovarian): > 100 µM
- TGI (NCI-H460 lung): > 100 µM
- TGI (T-47D breast): > 100 µM
- TGI (HOP-92 NSCLC): > 100 µM
- TGI (MOLT-4 leukemia): > 100 µM
- TGI (RPMI-8226 leukemia): > 100 µM
- TGI (ACHN renal): > 100 µM
- TGI (DU-145 prostate): > 100 µM
- TGI (HOP-62 NSCLC): > 100 µM
- TGI (SK-MEL-2 melanoma): > 100 µM
- TGI (UACC-257 melanoma): > 100 µM
- TGI (SK-MEL-5 melanoma): > 100 µM
- TGI (HS 578T breast): > 100 µM
- TGI (CCRF-CEM leukemia): > 100 µM
- TGI (SF-295 CNS): > 100 µM
- TGI (OVCAR-3 ovarian): > 100 µM
- TGI (UO-31 renal): > 100 µM
- TGI (M14 melanoma): > 100 µM
- TGI (A549 NSCLC): > 100 µM
- TGI (OVCAR-4 ovarian): > 100 µM
- TGI (CAKI-1 renal): > 100 µM
- TGI (SF-268 CNS): > 100 µM
- TGI (786-0 renal): > 100 µM
- TGI (NCI/ADR-RES ovarian): > 100 µM
- TGI (MCF7 breast): > 100 µM
- TGI (HCT-116 colon): > 100 µM
- TGI (SR leukemia): > 100 µM
- TGI (OVCAR-8 ovarian): > 100 µM
- TGI (MDA-MB-435): > 100 µM
- TGI (RXF 393 renal): > 100 µM
- TGI (MDA-MB-231 breast): > 100 µM
